Reference: patent US8476023B2, “Methods relating to aromatase inhibitor pharmacogenetics” (The Penn State Research Foundation, priority 2009, dated 2013)

Columns and labels:
UGT1A8 = target: T1, UGT1A8 (Homo sapiens, UniProt Q9HAW9); test: Glucuronidation assay, UGT1A8-overexpressing HEK293 cell homogenate; type: in vitro ADME; details: up to 600 μM substrate
T1 construct: expressed in transfected cells; host or cells: HEK293
T1 sequence (Q9HAW9 26-530): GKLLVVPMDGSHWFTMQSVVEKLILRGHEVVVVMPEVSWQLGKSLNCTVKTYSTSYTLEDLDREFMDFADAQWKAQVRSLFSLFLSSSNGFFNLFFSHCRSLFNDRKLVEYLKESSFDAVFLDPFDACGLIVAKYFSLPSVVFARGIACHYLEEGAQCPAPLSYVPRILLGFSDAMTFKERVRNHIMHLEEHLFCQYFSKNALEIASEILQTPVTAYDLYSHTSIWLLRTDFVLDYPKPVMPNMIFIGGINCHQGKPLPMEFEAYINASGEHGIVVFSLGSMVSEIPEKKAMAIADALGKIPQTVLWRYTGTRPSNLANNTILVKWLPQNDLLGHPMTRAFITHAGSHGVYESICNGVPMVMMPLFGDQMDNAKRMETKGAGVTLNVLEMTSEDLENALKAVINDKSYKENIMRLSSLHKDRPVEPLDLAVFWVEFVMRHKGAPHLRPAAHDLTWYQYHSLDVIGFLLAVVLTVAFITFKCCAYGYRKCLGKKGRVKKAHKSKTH

UGT1A10 = target: T2, UGT1A10 (Homo sapiens, UniProt Q9HAW8); test: Glucuronidation assay, UGT1A10-overexpressing HEK293 cell homogenate; type: in vitro ADME; details: UGT1A10; up to 600 μM substrate
T2 construct: expressed in transfected cells; host or cells: HEK293
T2 sequence (Q9HAW8 26-530): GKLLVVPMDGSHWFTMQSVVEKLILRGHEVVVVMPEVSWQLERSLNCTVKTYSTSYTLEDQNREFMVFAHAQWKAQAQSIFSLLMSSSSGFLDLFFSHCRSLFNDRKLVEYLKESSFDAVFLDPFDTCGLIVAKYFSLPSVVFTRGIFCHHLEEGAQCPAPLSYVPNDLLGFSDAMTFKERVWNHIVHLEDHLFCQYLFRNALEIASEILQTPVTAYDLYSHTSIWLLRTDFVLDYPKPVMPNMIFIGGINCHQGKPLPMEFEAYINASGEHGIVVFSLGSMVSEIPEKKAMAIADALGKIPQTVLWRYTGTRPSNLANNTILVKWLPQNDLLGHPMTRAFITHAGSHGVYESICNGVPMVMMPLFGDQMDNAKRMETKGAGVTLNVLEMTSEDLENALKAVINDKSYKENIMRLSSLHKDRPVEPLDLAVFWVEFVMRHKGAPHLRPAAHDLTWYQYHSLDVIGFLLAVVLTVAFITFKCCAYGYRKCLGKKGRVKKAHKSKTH

UGT2B17 = target: T3, UGT2B17 (Homo sapiens, UniProt O75795); test: Glucuronidation assay, UGT2B17-overexpressing HEK293 cell homogenate; type: in vitro ADME; details: UGT2B17; up to 600 μM substrate
T3 construct: expressed in transfected cells; host or cells: HEK293
T3 sequence (O75795 24-530): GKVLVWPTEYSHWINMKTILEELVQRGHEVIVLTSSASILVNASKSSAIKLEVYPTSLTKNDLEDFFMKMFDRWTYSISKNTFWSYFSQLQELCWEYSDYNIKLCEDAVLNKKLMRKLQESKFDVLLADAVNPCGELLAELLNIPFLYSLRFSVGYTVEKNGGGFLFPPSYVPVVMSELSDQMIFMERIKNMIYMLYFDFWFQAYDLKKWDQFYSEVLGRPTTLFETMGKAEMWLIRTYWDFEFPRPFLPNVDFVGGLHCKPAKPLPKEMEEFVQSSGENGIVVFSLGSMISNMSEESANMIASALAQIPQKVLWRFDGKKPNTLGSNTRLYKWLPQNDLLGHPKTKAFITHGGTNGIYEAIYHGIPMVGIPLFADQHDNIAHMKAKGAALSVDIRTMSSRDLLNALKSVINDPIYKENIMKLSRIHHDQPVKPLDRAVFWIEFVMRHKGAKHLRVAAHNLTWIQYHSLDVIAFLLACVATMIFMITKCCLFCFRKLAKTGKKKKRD

UGT1A4^24Pro/48Leu = target: T4, UGT1A4^24Pro/48Leu (Homo sapiens, UniProt P22310); test: Glucuronidation assay, UGT1A4 24Pro/48Leu-overexpressing HEK293 cell homogenate; type: in vitro ADME; details: UGT 1A4 as worded in text; up to 600 μM substrate
T4 construct: expressed in transfected cells; host or cells: HEK293
T4 sequence (P22310 29-534): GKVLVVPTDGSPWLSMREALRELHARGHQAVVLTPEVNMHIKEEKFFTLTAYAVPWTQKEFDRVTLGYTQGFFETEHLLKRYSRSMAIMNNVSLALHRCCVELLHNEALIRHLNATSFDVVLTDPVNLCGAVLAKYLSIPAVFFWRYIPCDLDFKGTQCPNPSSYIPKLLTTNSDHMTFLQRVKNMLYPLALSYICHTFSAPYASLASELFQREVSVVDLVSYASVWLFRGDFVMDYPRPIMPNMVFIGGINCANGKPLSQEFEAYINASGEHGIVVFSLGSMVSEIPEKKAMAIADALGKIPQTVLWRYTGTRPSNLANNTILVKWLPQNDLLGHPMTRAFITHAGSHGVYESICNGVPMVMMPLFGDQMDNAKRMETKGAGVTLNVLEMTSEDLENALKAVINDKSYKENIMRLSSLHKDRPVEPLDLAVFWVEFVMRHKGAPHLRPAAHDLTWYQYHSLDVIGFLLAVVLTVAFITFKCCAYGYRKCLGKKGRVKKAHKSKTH

UGT1A4 24Thr/48Leu = test: Glucuronidation assay, UGT1A4 24Thr/48Leu-overexpressing HEK293 cell homogenate; type: in vitro ADME, human; details: human, pH 7.4
UGT1A4^24Thr/48Leu = test: as above; type: in vitro ADME, human; details: normalized per μg UGT protein by Western blot
[1] = Kinetic analysis of glucuronidation by individual HLM from UGT2B17 (*1/*1) subjects; type: in vitro ADME, human; details: human, liver microsomes of UGT2B17 (*1/*1) subjects
[2] = test system: human liver microsomes (HLM), UGT2B17 (*1/*1) genotype; test: as above; type: in vitro ADME; details: per mg HLM protein
[3] = Kinetic analysis of glucuronidation by individual HLM from UGT2B17 (*2/*2) subjects; type: in vitro ADME, human; details: human, liver microsomes of UGT2B17 (*2/*2) subjects
[4] = test system: human liver microsomes (HLM), UGT2B17 (*2/*2) genotype; test: as above; type: in vitro ADME; details: per mg HLM protein
[5] = test system: human liver microsomes (HLM); test: Rate of exemestane-17-O-glucuronide formation in a series of 110 HLM by UGT2B17 genotype; type: in vitro ADME; details: 9.4 μM 17-dihydroexemestane, p<0.001
[6] = test system: UGTs 1A1, 1A3, 1A6, 1A7, 1A9, 2B4, 2B7, 2B10, 2B11, 2B15; test: Screening of the other UGT-overexpressing HEK293 cell homogenates for glucuronidation activity; type: in vitro ADME, human; details: other UGTs screened; up to 1 mg of UGT overexpressing cell homogenate

C=C1C[C@@H]2[C@H](CC[C@]3(C)C(O)CC[C@@H]23)[C@@]2(C)C=CC(=O)C=C12 (stereo partly shown) [17-dihydroexemestane]
glucuronidation activity in UGT screen (UGT1A8): detectable activity
glucuronidation activity in UGT screen (UGT1A10): detectable activity
glucuronidation activity in UGT screen (UGT2B17): detectable activity
glucuronidation activity in UGT screen (UGT1A4^24Pro/48Leu): detectable activity
Km at 60 min (UGT1A4 24Thr/48Leu): 28 ± 7.8 µM
Vmax (UGT1A4^24Thr/48Leu): 0.26 ± 0.04 pmol · min^−1 · μg UGT protein^−1
Km at 60 min ([1]; pH 7.4, HLM # 972, UGT2B17 (*1/*1), read-out: KM): 10.6 µM
Km at 60 min ([1]; pH 7.4, HLM # 1183, UGT2B17 (*1/*1), read-out: KM): 7.2 µM
Km at 60 min ([1]; pH 7.4, HLM # 1392, UGT2B17 (*1/*1), read-out: KM): 7.1 µM
Km at 60 min ([1]; pH 7.4, HLM # 2412, UGT2B17 (*1/*1), read-out: KM): 6.7 µM
Km at 60 min ([1]; pH 7.4, mean of five UGT2B17 (*1/*1) HLM, read-out: KM, mean ± S.D.): 7.3 ± 2 µM
Vmax ([2]; HLM # 972, UGT2B17 (*1/*1)): 51.6 pmol/min/mg
Vmax ([2]; HLM # 1183, UGT2B17 (*1/*1)): 322 pmol/min/mg
Vmax ([2]; HLM # 1392, UGT2B17 (*1/*1)): 393 pmol/min/mg
Vmax ([2]; HLM # 2167, UGT2B17 (*1/*1)): 38.9 pmol/min/mg
Vmax ([2]; HLM # 2412, UGT2B17 (*1/*1)): 213 pmol/min/mg
Vmax, mean ± S.D. ([2]; mean of five UGT2B17 (*1/*1) HLM): 204 ± 158 pmol/min/mg
Km at 60 min ([3]; pH 7.4, HLM # 383, UGT2B17 (*2/*2), read-out: KM): 9.3 µM
Km at 60 min ([3]; pH 7.4, HLM # 416, UGT2B17 (*2/*2), read-out: KM): 17 µM
Km at 60 min ([3]; pH 7.4, HLM # 2174, UGT2B17 (*2/*2), read-out: KM): 12.4 µM
Km at 60 min ([3]; pH 7.4, HLM # 2175, UGT2B17 (*2/*2), read-out: KM): 13 µM
Km at 60 min ([3]; pH 7.4, HLM # 3873, UGT2B17 (*2/*2), read-out: KM): 11 µM
Km at 60 min ([3]; pH 7.4, mean of five UGT2B17 (*2/*2) HLM, read-out: KM, mean ± S.D.): 12.8 ± 3 µM
Vmax ([4]; HLM # 383, UGT2B17 (*2/*2)): 17.0 pmol/min/mg
Vmax ([4]; HLM # 416, UGT2B17 (*2/*2)): 5.6 pmol/min/mg
Vmax ([4]; HLM # 2174, UGT2B17 (*2/*2)): 13.0 pmol/min/mg
Vmax ([4]; HLM # 2175, UGT2B17 (*2/*2)): 2.3 pmol/min/mg
Vmax ([4]; HLM # 3873, UGT2B17 (*2/*2)): 8.1 pmol/min/mg
Vmax, mean ± S.D. ([4]; mean of five UGT2B17 (*2/*2) HLM): 9.2 ± 5.9 pmol/min/mg
decrease in glucuronidation activity in HLM (*2/*2) compared with HLM (*1/*1) [5]: 14 fold
glucuronidation activity in UGT screen [6]: None of the other UGTs screened in assays described herein exhibited any glucuronidation activity
